Experimental data published in patent US20190330189A1, “ANTIBACTERIAL COMPOUNDS” (Janssen Sciences Ireland UC, priority 2015, published 2019).
Like-named read-outs stand apart in the source and are kept apart here.

Key:
[1] = system: Mycobacterium tuberculosis strain H37Rv; experiment: Test 1: MIC determination, resazurin fluorescence, M. tuberculosis H37Rv; assay type: cell-based; settings: for IC50: Mycobacterium tuberculosis, H37RV
[2] = system: Mycobacterium tuberculosis strain EH 4.0 (361.269); experiment: Test 4: MIC determination, resazurin fluorescence, strain EH 4.0; assay type: cell-based; settings: for IC50: Mycobacterium tuberculosis, read-out: pIC50, Test 4, M. tuberculosis strain EH 4.0 (361.269) (converted); for pIC50: Test 4, M. tuberculosis strain EH 4.0 (361.269)
Excerpt: TEST 4 (See Also Test 1 Above; in this Test a Different Strain of Mycobacterium tuberculosis Strain is Employed)
Appropriate solutions of experimental and reference compounds were made in 96 well plates with 7H9 medium. Samples of Mycobacterium tuberculosis strain EH 4.0 (361.269) were taken from cultures in stationary growth phase. These were first diluted to obtain an optical density of 0.3 at 600 nm wavelength and then diluted 1/100, resulting in an inoculum of approximately 5×10 exp5 colony forming units per well. Plates were incubated at 37° C. in plastic bags to prevent evaporation. After 7 days, resazurin was added to all wells.

[3] = Test 1, M. tuberculosis H37Rv, first test, read-out: pIC50 (converted)
[4] = Test 1, repeated (2nd) test, read-out: pIC50 * (converted)
[5] = Test 1, repeated (3rd) test, read-out: pIC50 ** (converted)
[6] = Test 1, M. tuberculosis H37Rv, first test

CCc1nc2ncc(Cl)cn2c1C(=O)NCc1ccc(N2CC3(CC(OC(F)F)C3)C2)cc1
melting point: 163.21 °C

CCc1nc2ccc(Cl)cn2c1C(=O)NCc1ccc(C2CC3(C2)CN(c2ccc(OC(F)(F)F)cc2)C3)cc1 [Compound 2]
IC50 [1, 3]: 16.2 nM
IC50 [1, 4]: 14.8 nM
IC50 [1, 5]: 11.7 nM
IC50 [2]: 50.1 nM

CCc1nc2ncc(Cl)cn2c1C(=O)NCc1ccc(C2CC3(C2)CN(c2ccc(OC(F)(F)F)cc2)C3)cc1 [Compound 3]
IC50 [1, 3]: 25.7 nM
IC50 [1, 4]: 26.3 nM
IC50 [1, 5]: 25.7 nM
IC50 [2]: 5.01 nM

CCc1nc2n(c1C(=O)NCc1ccc(N3CC4(C3)CN(c3ccc(OC(F)(F)F)cc3)C4)cc1)CCCC2 [Compound 6]
IC50 [1, 3]: 141 nM
IC50 [1, 4]: 102 nM
IC50 [1, 5]: 129 nM
IC50 [2]: 25.1 nM

CCc1nc2ccc(Cl)cn2c1C(=O)NCc1ccc(N2CC3(CC(c4ccc(OC(F)(F)F)cc4)C3)C2)cc1 [Compound 7]
IC50 [1, 3]: 100 nM
IC50 [1, 4]: 75.9 nM
IC50 [1, 5]: 79.4 nM
IC50 [2]: 15.8 nM

CCc1nc2ncc(Cl)cn2c1C(=O)NCc1ccc(N2CC3(CC(c4ccc(OC(F)(F)F)cc4)C3)C2)cc1 [Compound 8]
IC50 [1, 3]: 148 nM
IC50 [1, 4]: 186 nM
IC50 [1, 5]: 170 nM
IC50 [2]: 50.1 nM

CCc1nc2ncc(Cl)cn2c1C(=O)NCc1ccc(N2CC3(CC(c4ccccc4)C3)C2)cc1 [Compound 9]
IC50 [1, 3]: 83.2 nM
IC50 [1, 4]: 72.4 nM
IC50 [1, 5]: 53.7 nM
IC50 [2]: 12.6 nM

CCc1nc2ccc(Cl)cn2c1C(=O)NCc1ccc(N2CC3(CC(c4ccc(S(F)(F)(F)(F)F)cc4)C3)C2)cc1 [Compound 10]
IC50 [1, 3]: 148 nM
IC50 [1, 4]: 141 nM
IC50 [1, 5]: 107 nM
IC50 [2]: 31.6 nM

CCc1nc2ncc(Cl)cn2c1C(=O)NCc1ccc(N2CC3(CC(c4cccnc4)C3)C2)cc1 [Compound 11]
IC50 [1, 3]: 1860 nM
IC50 [1, 4]: 3020 nM
IC50 [1, 5]: 1200 nM
IC50 [2]: 794 nM

Cc1nc2sc(Br)cn2c1C(=O)NCc1ccc(N2CC3(CCC3)C2)cc1 [Compound 13]
IC50 [1, 3]: 269 nM
IC50 [1, 4]: 257 nM
IC50 [1, 5]: 263 nM
IC50 [2]: 31.6 nM

CCc1nc2ccc(Cl)cn2c1C(=O)NCC1CCC2(CCN(c3ccc(OC(F)(F)F)cc3)CC2)CO1 (stereo not shown) [Compound 14]
IC50 [1, 3]: 2820 nM
IC50 [1, 4]: 2950 nM
IC50 [2]: 398 nM

CCc1nc2ccc(Cl)cn2c1C(=O)NCC1CC2(CCN(c3ccc(OC(F)(F)F)cc3)CC2)C1 [Compound 15]
IC50 [1, 3]: 102 nM
IC50 [1, 4]: 95.5 nM
IC50 [2]: 158 nM

CCc1nc2ccc(Cl)cn2c1C(=O)NCc1ccc(N2CC3(CC(F)C3)C2)cc1 [Compound 16]
pIC50 [1, 6]: 6.55
pIC50 * ([1]; Test 1, repeated (2nd) test): 6.61
pIC50 [2]: 8.0

CCc1nc2ccc(Cl)cn2c1C(=O)NCc1ccc(N2CC3(CC(F)C3)C2)cc1 [Compound 17]
IC50 [1, 4]: 316 nM
IC50 [1, 5]: 468 nM
pIC50 [1, 6]: 7.82
pIC50 [2]: 7.4

CCc1nc2sc(C)cn2c1C(=O)NCc1ccc(N2CC3(CC(F)C3)C2)cc1 [Compound 18]
IC50 [1, 3]: 191 nM
IC50 [1, 4]: 123 nM
IC50 [1, 5]: 126 nM
IC50 [2]: 31.6 nM

CCc1nc2n(c1C(=O)NCc1ccc(N3CC4(CC(F)C4)C3)cc1)CCCC2 [Compound 19]
IC50 [1, 3]: 794 nM
IC50 [1, 4]: 1150 nM
IC50 [1, 5]: 1070 nM
IC50 [2]: 1260 nM

CCc1nc2sc(C)cn2c1C(=O)NCc1ccc(N2CC3(CC(O)C3)C2)cc1 [Compound 20]
melting point: 300 °C
IC50 [2]: 316 nM

CCc1nc2sc(C)cn2c1C(=O)NCc1ccc(N2CC3(CC(=O)C3)C2)cc1 [Compound 21]
IC50 ([1]; read-out: pIC50 (converted)): 2450 nM
IC50 ([1]; read-out: pIC50 * (converted)): 1050 nM
IC50 ([1]; read-out: pIC50 ** (converted)): 1380 nM
IC50 [2]: 100 nM

Cc1nc2sccn2c1C(=O)NCc1ccc(N2CC3(CC(c4ccc(OC(F)(F)F)cc4)C3)C2)cc1 [Compound 24]
IC50 ([1]; read-out: pIC50 (converted)): 200 nM
IC50 ([1]; read-out: pIC50 * (converted)): 275 nM
IC50 ([1]; read-out: pIC50 ** (converted)): 115 nM
IC50 [2]: 251 nM

CCc1nc2sc(C)cn2c1C(=O)NCc1ccc(N2CC3(COC3)C2)cc1 [Compound 27]
IC50 [1, 3]: 4070 nM
IC50 [1, 4]: 4170 nM
IC50 [1, 5]: 2880 nM
IC50 [2]: 398 nM

CCc1nc2ccc(Cl)cn2c1C(=O)NCc1ccc(N2CC3(CCN(c4ccc(OC(F)(F)F)cc4)CC3)C2)cc1 [Compound 28]
IC50 [1, 3]: 6030 nM
IC50 [1, 4]: 7590 nM
IC50 [1, 5]: 7410 nM
IC50 [2]: 3.16 nM

CCc1nc2ccc(Cl)cn2c1C(=O)NC1CCC2(CC1)CCN(c1ccc(OC(F)(F)F)cc1)CC2 [Compound 29]
IC50 [1, 3]: 7940 nM
IC50 [1, 4]: 6760 nM
IC50 [1, 5]: 7080 nM
IC50 [2]: 7940 nM

Cc1nc2sccn2c1C(=O)NCc1ccc(N2CC3(COC3)C2)cc1 [Compound 30]
IC50 [1, 3]: 8910 nM
IC50 [1, 4]: > 12600 nM
IC50 [1, 5]: 11000 nM
IC50 [2]: 7940 nM

CCc1c(C(=O)NCc2ccc(N3CC4(CC(F)C4)C3)cc2)c2ccncc2n1C [Compound 31]
IC50 [1, 3]: > 12600 nM
IC50 [1, 4]: > 12600 nM
IC50 [1, 5]: > 12600 nM
IC50 [2]: > 12600 nM

CCc1nc2sc(C)cn2c1C(=O)NCc1ccc(N2CC3(C2)CN(c2ccc(OC(F)(F)F)cc2)C3)cc1 [Compound 68]
melting point: 180.57 °C
IC50 [2]: 63.1 nM

CCc1nc2ccc(Cl)cn2c1C(=O)NCc1ccc(N2CCC3(C2)CN(c2ccc(OC(F)(F)F)cc2)C3)cc1 [Compound 75]
melting point: 183.86 °C
IC50 [2]: 15.8 nM

CCc1nc2ccc(Cl)cn2c1C(=O)NCc1ccc(N2CC3(CCN(c4ccc(OC(F)(F)F)cc4)C3)C2)cc1 [Compound 76]
melting point: 136.04 °C
IC50 [2]: 25.1 nM

CCc1nc2n(c1C(=O)NCc1ccc(N3CC4(CC(c5ccc(OC(F)(F)F)cc5)C4)C3)cc1)CCCC2 [Compound 82]
melting point: 190.78 °C
IC50 [2]: 63.1 nM

CCc1nc2sc(C)cn2c1C(=O)NCc1ccc(N2CC3(CC(c4ccc(OC(F)(F)F)cc4)C3)C2)cc1 [Compound 83]
melting point: 108.84 °C
IC50 [2]: 100 nM

CCc1nc2ccc(Cl)cn2c1C(=O)NCc1ccc(N2CC3(CC(OC)C3)C2)cc1 [Compound 84]
melting point: 137.48 °C
IC50 [2]: 100 nM

CCc1nc2n(c1C(=O)NCc1ccc(N3CC4(CC(OC)C4)C3)cc1)CCCC2 [Compound 85]
melting point: 147.41 °C
IC50 [2]: 1000 nM

CCc1nc2ncc(Cl)cn2c1C(=O)NCc1ccc(N2CC3(CC(OC)C3)C2)cc1 [Compound 86]
melting point: 127.22 °C
IC50 [2]: 158 nM

CCc1nc2ccc(Cl)cn2c1C(=O)NCc1ccc(N2CC3(CC(c4ccc(OC)c(F)c4)C3)C2)cc1 [Compound 87]
melting point: 190.35 °C
IC50 [2]: 251 nM

CCc1nc2ncc(Cl)cn2c1C(=O)NCc1ccc(N2CC3(CC(c4ccc(OC)c(F)c4)C3)C2)cc1 [Compound 88]
melting point: 156.54 °C
IC50 [2]: 251 nM

CCc1nc2ccc(Cl)cn2c1C(=O)NCc1ccc(N2CC3(CC(c4ccncc4)C3)C2)cc1 [Compound 89]
melting point: 192.86 °C
IC50 [2]: 6310 nM

CCc1nc2ccc(Cl)cn2c1C(=O)NCc1ccc(N2CC3(CN(C(C)=O)C3)C2)cc1 [Compound 90]
melting point: 237.63 °C
IC50 [2]: 12600 nM

CCc1nc2ccc(Cl)cn2c1C(=O)NCc1ccc(N2CC3(CN(C(=O)c4ccccc4)C3)C2)cc1 [Compound 91]
melting point: 204.21 °C
IC50 [2]: 10000 nM

CCc1nc2ccc(Cl)cn2c1C(=O)NCc1ccc(C2CC3(C2)CN(C(=O)C(F)(F)F)C3)cc1 [Compound 92]
melting point: 80.75 °C
IC50 [2]: 251 nM

CCc1nc2ccc(Cl)cn2c1C(=O)NCc1ccc(N2CC3(C2)CC2(C3)OCCCO2)cc1 [Compound 95]
melting point: 154.23 °C
IC50 [2]: 158 nM

CCc1nc2ccc(Cl)cn2c1C(=O)NCc1ccc(N2CC3(CC(=O)C3)C2)cc1 [Compound 96]
melting point: 182.82 °C
IC50 [2]: 126 nM

CCc1nc2ccc(Cl)cn2c1C(=O)NCc1ccc(N2CC3(CC(OC(F)(F)F)C3)C2)cc1 [Compound 117]
melting point: 167.85 °C
IC50 [2]: 20 nM

Cc1nc2sc(F)cn2c1C(=O)NCc1ccc(N2CC3(CC(=O)C3)C2)cc1 [Compound 118]
melting point: 201.34 °C
IC50 [2]: 12600 nM

CCc1nc2ccc(Cl)cn2c1C(=O)NCc1ccc(C2CC3(C2)CN(c2cccnc2)C3)cc1 [Compound 119]
melting point: 147.85 °C
IC50 [2]: 631 nM

CCc1nc2ccc(Cl)cn2c1C(=O)NCc1ccc(N2CC3(CC(c4ccccn4)C3)C2)cc1 [Compound 120]
melting point: 139.57 °C
IC50 [2]: 10000 nM

CCc1nc2ncc(Cl)cn2c1C(=O)NCc1ccc(N2CC3(C2)CN(c2cccnc2)C3)cc1 [Compound 121]
melting point: 241.08 °C
IC50 [2]: 2510 nM

CCc1nc2ncc(Cl)cn2c1C(=O)NCc1ccc(C2CC3(C2)CN(c2cccnc2)C3)cc1 [Compound 122]
melting point: 161.23 °C
IC50 [2]: 794 nM

CCc1nc2ccc(Cl)cn2c1C(=O)NCc1ccc(N2CC3(CC(n4cncn4)C3)C2)cc1 [Compound 123]
melting point: 166.63 °C
IC50 [2]: 1580 nM

CCc1nc2ccc(Cl)cn2c1C(=O)NCc1ccc(N2CC3(CC(c4nccs4)C3)C2)cc1 [Compound 124]
melting point: 135.97 °C
IC50 [2]: 79.4 nM
pIC50 [2]: 7.2

CCc1nc2ccc(Cl)cn2c1C(=O)NCc1ccc(N2CCC3(CC2)CC(F)(F)C3)cc1 [Compound 125]
melting point: 146.77 °C
IC50 [2]: 2 nM
